Active and inactive are the calls of the source. Cut-off read from the data, not from the text of the source, for most assays here: actives have a measured IC50 and inactives only a lower limit.
Tests used:
Type in all cases: functional
[1] = target: T1, Neuropeptides B/W receptor type 1 (Homo sapiens, UniProt P48145); assay: human NPBW1 receptor blockade, IC50 – cell-based, fluorescence, dose response, late-stage follow-up (AID 463251)
T1 sequence (P48145 whole entry): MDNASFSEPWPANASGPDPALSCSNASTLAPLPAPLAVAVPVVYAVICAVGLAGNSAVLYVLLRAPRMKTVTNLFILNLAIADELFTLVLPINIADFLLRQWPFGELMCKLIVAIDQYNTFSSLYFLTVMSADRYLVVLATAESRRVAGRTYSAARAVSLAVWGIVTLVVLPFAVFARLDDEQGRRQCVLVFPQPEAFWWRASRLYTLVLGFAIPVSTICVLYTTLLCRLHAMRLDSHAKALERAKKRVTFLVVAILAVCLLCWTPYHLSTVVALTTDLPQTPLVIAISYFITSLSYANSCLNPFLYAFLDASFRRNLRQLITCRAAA

[2] = target: Melanin-concentrating hormone receptor 1 (Homo sapiens, UniProt Q99705); assay: Late-stage fluorescence-based counterscreen for antagonists of the G-protein coupled receptor 7 (GPR7): cell-based dose response assay to identify antagonists of the melanin-concentrating hormone receptor 1 (MCHR1). [Related pubchem assays (depositor defined):AID1861, AID1880, AID1952, AID2148, AID2251, AID2257, AID485339];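 note: stimulated with 30 nM MCH peptide agonist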
[3] = target: T2, Voltage-gated N-type calcium channel alpha-1B subunit/Amyloid beta A4 precursor protein-binding family A member 1 (Homo sapiens, UniProt Q00975+Q02410); assay: disruptors of Mint-PDZ/N-type channel peptide interaction – biochemical, HTRF, set 2, SAR follow-up (AID 434980)
[4] = target: T2, Voltage-gated N-type calcium channel alpha-1B subunit/Amyloid beta A4 precursor protein-binding family A member 1; assay: disruptors of Mint-PDZ/N-type channel peptide interaction – biochemical, HTRF, SAR follow-up (AID 2489)

T2 sequence (Q00975 whole entry): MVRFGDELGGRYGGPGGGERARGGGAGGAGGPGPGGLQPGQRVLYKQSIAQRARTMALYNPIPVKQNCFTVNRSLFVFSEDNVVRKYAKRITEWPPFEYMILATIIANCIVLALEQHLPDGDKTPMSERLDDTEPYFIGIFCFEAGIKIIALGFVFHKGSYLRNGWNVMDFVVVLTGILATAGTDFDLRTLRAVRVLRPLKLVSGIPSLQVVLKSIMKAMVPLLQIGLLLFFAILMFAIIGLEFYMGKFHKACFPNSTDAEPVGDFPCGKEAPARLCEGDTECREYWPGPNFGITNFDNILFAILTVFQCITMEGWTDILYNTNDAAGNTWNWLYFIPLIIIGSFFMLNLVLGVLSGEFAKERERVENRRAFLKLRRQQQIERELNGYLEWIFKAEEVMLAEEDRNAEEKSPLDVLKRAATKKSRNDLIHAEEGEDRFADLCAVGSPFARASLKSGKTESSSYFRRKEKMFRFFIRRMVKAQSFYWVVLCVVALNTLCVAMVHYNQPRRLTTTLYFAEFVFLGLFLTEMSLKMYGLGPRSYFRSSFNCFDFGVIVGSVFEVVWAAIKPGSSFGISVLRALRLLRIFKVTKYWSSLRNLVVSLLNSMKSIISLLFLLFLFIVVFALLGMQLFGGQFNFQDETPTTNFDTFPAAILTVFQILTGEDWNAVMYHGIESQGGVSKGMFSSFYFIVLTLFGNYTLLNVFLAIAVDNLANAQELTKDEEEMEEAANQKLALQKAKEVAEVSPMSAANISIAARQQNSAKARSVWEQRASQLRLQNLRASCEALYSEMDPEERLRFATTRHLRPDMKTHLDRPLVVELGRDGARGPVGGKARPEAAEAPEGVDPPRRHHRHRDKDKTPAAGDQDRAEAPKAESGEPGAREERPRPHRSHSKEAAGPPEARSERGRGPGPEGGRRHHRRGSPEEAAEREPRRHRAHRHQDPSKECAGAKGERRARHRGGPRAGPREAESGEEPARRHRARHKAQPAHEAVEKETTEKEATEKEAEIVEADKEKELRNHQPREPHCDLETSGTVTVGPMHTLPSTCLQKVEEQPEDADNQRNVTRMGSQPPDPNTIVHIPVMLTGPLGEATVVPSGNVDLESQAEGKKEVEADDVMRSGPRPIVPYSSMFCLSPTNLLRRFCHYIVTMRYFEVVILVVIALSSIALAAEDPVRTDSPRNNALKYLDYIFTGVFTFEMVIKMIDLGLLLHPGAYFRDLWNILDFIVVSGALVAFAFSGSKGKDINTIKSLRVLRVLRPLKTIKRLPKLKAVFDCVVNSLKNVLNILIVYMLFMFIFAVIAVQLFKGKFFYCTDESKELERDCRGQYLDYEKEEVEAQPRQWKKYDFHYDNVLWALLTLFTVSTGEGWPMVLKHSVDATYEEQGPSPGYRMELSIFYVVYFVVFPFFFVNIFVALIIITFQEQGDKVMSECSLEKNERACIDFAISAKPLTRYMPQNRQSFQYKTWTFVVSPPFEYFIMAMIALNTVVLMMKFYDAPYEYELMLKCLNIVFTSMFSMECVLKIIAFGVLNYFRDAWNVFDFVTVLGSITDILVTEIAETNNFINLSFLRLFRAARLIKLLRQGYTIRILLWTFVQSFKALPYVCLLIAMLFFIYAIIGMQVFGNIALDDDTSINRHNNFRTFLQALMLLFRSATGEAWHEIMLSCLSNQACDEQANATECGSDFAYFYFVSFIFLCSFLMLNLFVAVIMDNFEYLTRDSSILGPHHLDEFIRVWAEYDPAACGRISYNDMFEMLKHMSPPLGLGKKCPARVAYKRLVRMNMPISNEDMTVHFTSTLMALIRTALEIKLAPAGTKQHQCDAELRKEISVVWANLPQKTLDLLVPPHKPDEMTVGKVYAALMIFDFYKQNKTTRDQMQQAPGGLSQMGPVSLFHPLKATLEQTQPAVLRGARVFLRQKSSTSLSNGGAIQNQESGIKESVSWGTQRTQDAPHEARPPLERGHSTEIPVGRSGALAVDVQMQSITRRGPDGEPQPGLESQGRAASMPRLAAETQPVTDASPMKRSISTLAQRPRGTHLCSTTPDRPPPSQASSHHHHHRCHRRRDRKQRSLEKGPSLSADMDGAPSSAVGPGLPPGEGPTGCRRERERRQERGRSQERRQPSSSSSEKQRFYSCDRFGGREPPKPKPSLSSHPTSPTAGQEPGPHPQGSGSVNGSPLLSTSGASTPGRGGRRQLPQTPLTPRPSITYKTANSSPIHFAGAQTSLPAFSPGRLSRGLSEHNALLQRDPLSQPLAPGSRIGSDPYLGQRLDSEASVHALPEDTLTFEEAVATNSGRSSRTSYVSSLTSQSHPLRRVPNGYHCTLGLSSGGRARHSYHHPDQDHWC
T2 sequence (Q02410 whole entry): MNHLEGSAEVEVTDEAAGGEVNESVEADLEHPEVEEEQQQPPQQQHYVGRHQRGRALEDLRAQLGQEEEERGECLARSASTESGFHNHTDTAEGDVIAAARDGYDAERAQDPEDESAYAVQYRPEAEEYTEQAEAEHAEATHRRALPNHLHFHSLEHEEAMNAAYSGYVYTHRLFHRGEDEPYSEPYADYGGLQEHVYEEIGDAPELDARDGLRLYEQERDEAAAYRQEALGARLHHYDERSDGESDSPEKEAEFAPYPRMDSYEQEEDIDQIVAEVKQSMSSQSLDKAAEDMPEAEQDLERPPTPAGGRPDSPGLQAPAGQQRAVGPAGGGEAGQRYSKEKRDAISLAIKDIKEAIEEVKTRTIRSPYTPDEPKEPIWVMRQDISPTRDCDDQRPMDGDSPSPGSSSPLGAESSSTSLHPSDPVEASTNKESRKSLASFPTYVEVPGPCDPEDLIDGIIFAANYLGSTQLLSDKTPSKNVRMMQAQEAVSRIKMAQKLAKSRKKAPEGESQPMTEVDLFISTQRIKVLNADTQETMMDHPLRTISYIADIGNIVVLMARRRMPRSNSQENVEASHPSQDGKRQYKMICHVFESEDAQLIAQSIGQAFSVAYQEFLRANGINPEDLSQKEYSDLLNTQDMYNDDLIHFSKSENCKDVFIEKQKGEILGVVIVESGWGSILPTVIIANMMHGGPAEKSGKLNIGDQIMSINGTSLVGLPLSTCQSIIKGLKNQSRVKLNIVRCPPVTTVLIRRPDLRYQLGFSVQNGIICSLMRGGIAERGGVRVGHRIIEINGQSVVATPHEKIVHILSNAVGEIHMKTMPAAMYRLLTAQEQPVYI
Sequence of Melanin-concentrating hormone receptor 1 (Q99705 whole entry): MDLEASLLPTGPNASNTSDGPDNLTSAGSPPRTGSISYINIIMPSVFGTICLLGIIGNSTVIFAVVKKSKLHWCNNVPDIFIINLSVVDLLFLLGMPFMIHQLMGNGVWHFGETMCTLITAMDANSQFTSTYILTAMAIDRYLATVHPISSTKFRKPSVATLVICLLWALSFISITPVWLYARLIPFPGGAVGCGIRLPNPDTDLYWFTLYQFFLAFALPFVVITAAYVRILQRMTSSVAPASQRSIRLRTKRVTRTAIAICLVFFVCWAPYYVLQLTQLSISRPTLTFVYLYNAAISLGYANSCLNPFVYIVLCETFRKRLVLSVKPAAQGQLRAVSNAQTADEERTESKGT

`CC(C)c1ccc(-n2ncc(Cl)c(Oc3cccc(N(C)C)c3)c2=O)cc1` was tested, and the IC50 [1] was 1.6 µM (active) and the IC50 [2] was 3.1 µM (active).

With `O=C(NCCc1ccncc1)c1cc(-c2ccco2)nc2ccccc12` the IC50 [3] was > 56.8 µM (inactive) and the IC50 [4] was > 56.8 µM (inactive).
